Consider 23 substances from patent publication US9464128B2, “Site-specific pegylated linear salmon calcitonin analogues” (INSTITUTE OF PHARMACOLOGY AND TOXICOLOGY ACADEMY OF …, priority 2007, dated 2016).

Data set [1] concerns rats. The data set can be described thus: Calcium-reducing activity, subcutaneous injection to abdomens of rats (blood calcium determination). It is filed as in vivo, rat. On the procedure:
The calcium-reducing activity of sCT(L)s and their PEGylated analogues was determined by administering them to abdomens of rats via subcutaneous injection, according to the method described in the literature (cf. Qian Deming, Shen Genquan, Ke Ruolun; Biological Assay of Calcitonin by Blood Calcium Determination in Rats, CHINESE JOURNAL OF PHARMACEUTICAL ANALYSIS, 1994, 14(3): 30-34).
The activity results as determined were listed as follows, while the reference activity of salmon calcitonin being 4500 IU/mg.

Data set [2] has as its system female Wistar rats. The data set can be described thus: Long-acting performance study: bone metabolism (alkaline phosphatase, serum calcium, osteocalcin) in castrated rats. It counts as in vivo, rat. The conditions noted are these: for Alkaline phosphatase / Osteocalcin / Serum calcium: n = 10. On the procedure:
(§1) 60 female Wistar rats, body weight 250-280 g, 16 weeks aged, were randomly divided into six groups: pseudo-castrated contrast group (10 rats); castrated contrast group (10 rats); calcitonin group (10 rats, twice every week, 0.036 μg/kg body weight/time); a low dose group of compound 12 (10 rats, twice every week, 0.216 μg/kg body weight/time); a high dose group of compound (10 rats, twice every week, 1.08 μg/kg body weight/time); and a high dose group of compound (10 rats, once every week, 1.08 μg/kg body weight/time). In each of the groups, the administration was given subcutaneously. During the experiment, the rats in each of the groups freely fed on standard solid forage and drank water. Except for the high dose group of compound 12 with administration once every week, blood samples were respectively taken from the orbits of the rats in other groups at the 6th week of administration, and subjected to the determination of osteocalcin, serum calcium and alkaline phosphatase (Table 2). At the end of the 12th week of administration, in addition to osteocalcin, serum calcium and alkaline phosphatase (Table 3), the bone densities of lumbar vertebrae, tibia and femur in the rats of each of the groups were determined (Table 4).

The subject of data set [3] is rats. As to conditions: reference standard; cited from earlier work.
The conditions of data set [4]: kidney homogenate; cited from earlier work.
The test system of data set [5] is female Wistar rats. The data set can be described thus: Long-acting performance study: bone density of lumbar vertebrae, femur and tibia in castrated rats. It is filed as in vivo, rat. The conditions noted are these: for Bone density, femur / Bone density, lumbar vertebrae / Bone density, tibia: 12th week, n = 10; for influence on bone density of lumbar vertebrae (in words): 12 weeks, high dose group of compound 12, positive contrast sCT group. On the procedure:
as §1

Setting [6] is: 6th week, 0.036 μg/kg s.c. twice every week.
Setting [7] is: 12th week, 0.036 μg/kg s.c. twice every week.
Setting [8] is: 6th week, high dose 1.08 μg/kg s.c. twice every week.
Where [9] appears, read: 6th week, low dose 0.216 μg/kg s.c. twice every week.
[10] abbreviates: 12th week, high dose 1.08 μg/kg s.c. twice every week.
[11] abbreviates: 12th week, low dose 0.216 μg/kg s.c. twice every week.
[12] abbreviates: high dose 1.08 μg/kg s.c. once/week.
Setting [13] is: high dose 1.08 μg/kg s.c. twice/week.
Setting [14] is: low dose 0.216 μg/kg s.c. twice/week.

Consider “[Val^1, Ala^7, Cys^19(mPEG5000-MAL),Des-20-22, Ala^30]sCT [Compound 21]”, for which the “Activity (calcium-reducing activity)” value in the data set with rats [1] amounted to 1208 IU/mg.

Take “[Val^1,Cys^7,Gln^18,Ala^30,Des-19-22]sCT [Compound 7]”: in the data set with rats [1], the “Activity (calcium-reducing activity)” value is 233 IU/mg.

As to “[Val^1,Cys^7,Des-19-22,Ala^30]sCT [Compound 5]”, in the data set on rats [1], the “Activity (calcium-reducing activity)” value was determined as 67 IU/mg.

Take “[Val^1,Ala^7,Cys^19(mPEG5000-MAL),Des-20-21, Ala^30]sCT [Compound 22]”: the “Activity (calcium-reducing activity)” value in the data set on rats [1] was 1707 IU/mg.

As for “[Val^1,Ala^7,Cys^16,Ala^30,Des-19-22]sCT [Compound 3]”, the “Activity (calcium-reducing activity)” value with rats [1] was 3394 IU/mg.

On to “[D-Ala^1,Cys^7,D-Ala^30]sCT [Compound 1]”, for which the “Activity (calcium-reducing activity)” value in the data set on rats [1] is listed as 5202 IU/mg.

Take “[Val^1,Ala^7,Cys^19,Ala^30,Des-20-22]sCT [Compound 10]”: in the data set with rats [1], the “Activity (calcium-reducing activity)” value is 892 IU/mg.

Consider “[Val^1,Cys^7,Gln^11,18,Ala^30,Des-19-22]sCT [Compound 9]”, for which the “Activity (calcium-reducing activity)” value in the data set with rats [1] came out at 920 IU/mg.

salmon calcitonin [reference compound]: in the data set on female Wistar rats [2] (setting [6]), the Alkaline phosphatase is 179.8 ± 31.4 u/100 ml, the Osteocalcin came out at 3.90 ± 1.1 ng/100 ml and the Serum calcium is on record as 9.3 ± 0.2 mg/100 ml. In the data set on female Wistar rats [2] (setting [7]), the Alkaline phosphatase is 200.9 ± 40.1 u/100 ml, the Osteocalcin is 3.38 ± 0.17 ng/100 ml and the Serum calcium was 9.3 ± 0.2 mg/100 ml. The “reference activity of salmon calcitonin” value with rats [3] is given as 4500 IU/mg. In data set [4], the metabolic half life was 4.8 min. In addition, in the data set on female Wistar rats [5] (0.036 μg/kg s.c. twice/week), the “Bone density, femur” value is 0.242 ± 0.027 g/cm^2; the “Bone density, lumbar vertebrae” value was 0.181 ± 0.013 g/cm^2; the “Bone density, tibia” value was found to be 0.247 ± 0.127 g/cm^2. Besides, the “influence on bone density of lumbar vertebrae (in words)” value in the data set on female Wistar rats [5] was “increased the bone density of lumbar vertebrae”.

For the substance “[Val^1,Cys^7,Des-19,Ala^30]sCT [Compound 2]”, the “Activity (calcium-reducing activity)” value in the data set with rats [1] amounted to 1136 IU/mg.

On to “[Val^1, Ala^7, Cys^16(mPEG5000-MAL), Des-19-22, Ala^30]sCT [Compound 14]”, for which, in the data set on rats [1], the “Activity (calcium-reducing activity)” value was 987 IU/mg.

Take “[Val^1,Cys^7(mPEG5000-MAL),Des-19,Ala^30]sCT [Compound 17]”: the “Activity (calcium-reducing activity)” value with rats [1] was determined as 1921 IU/mg.

For “[Val^1,Ala^7,Cys^19,Ala^30,Des-20-21]sCT [Compound 11]”, the “Activity (calcium-reducing activity)” value with rats [1] was 379 IU/mg.

Turning to “[Val^1,Cys^7(mPEG5000-MAL),Des-19,Ala^30]sCT [Compound 13]”, in the data set with rats [1], the “Activity (calcium-reducing activity)” value was 438 IU/mg.

For “[Val^1,Cys^7(mPEG5000-MAL), Gln^18,Des-19-22, Ala^30]sCT [Compound 18]”, in the data set with rats [1], the “Activity (calcium-reducing activity)” value is given as 763 IU/mg.

As to “[Val^1,Cys^7(mPEG5000-MAL), Gln^11,18,Des-19-22,Ala^30]sCT [Compound 20]”, the “Activity (calcium-reducing activity)” value in the data set on rats [1] is listed as 1265 IU/mg.

On to “[Val^1,Cys^7,Ala^30,Des-19]sCT [Compound 6]”, for which the “Activity (calcium-reducing activity)” value with rats [1] was 4347 IU/mg.

In the case of “[Val^1,Cys^7,Gln^11,Ala^30,Des-19-22]sCT [Compound 8]”, the “Activity (calcium-reducing activity)” value with rats [1] stood at 344 IU/mg.

For “[D-Ala^1,Cys^7(mPEG5000-MAL),D-Ala^30]sCT [Compound 12]”, in the data set on rats [1], the “Activity (calcium-reducing activity)” value was determined as 1467 IU/mg. Moreover, the Alkaline phosphatase in the data set on female Wistar rats [2] (setting [8]) was 180.0 ± 19.4 u/100 ml; in the data set on female Wistar rats [2] (setting [9]), 187.0 ± 30.4 u/100 ml; in the data set on female Wistar rats [2] (setting [10]), 188.2 ± 51.2 u/100 ml; in the data set with female Wistar rats [2] (setting [11]), 202.4 ± 44.8 u/100 ml. The Osteocalcin was 3.81 ± 0.24 ng/100 ml with female Wistar rats [2] (setting [8]), 3.77 ± 0.25 ng/100 ml with female Wistar rats [2] (setting [9]), 3.95 ± 0.24 ng/100 ml in the data set with female Wistar rats [2] (setting [10]) and 4.01 ± 0.25 ng/100 ml with female Wistar rats [2] (setting [11]). For the same substance, the Serum calcium in the data set on female Wistar rats [2] (setting [8]) is reported as 9.2 ± 0.2 mg/100 ml; with female Wistar rats [2] (setting [9]), 9.8 ± 0.3 mg/100 ml; in the data set with female Wistar rats [2] (setting [10]) it was 9.4 ± 0.4 mg/100 ml; with female Wistar rats [2] (setting [11]) it was 9.8 ± 0.3 mg/100 ml. Besides, in the data set with female Wistar rats [2] (high dose group, 6th and 12th weeks of administration), the “influence on bone metabolism of rats compared with sCT group (in words)” value is “substantially equivalent to the positive contrast sCT group”. In addition, the “Bone density, lumbar vertebrae” value is 0.182 ± 0.014 g/cm^2 in the data set on female Wistar rats [5] (setting [12]), 0.181 ± 0.018 g/cm^2 in the data set with female Wistar rats [5] (setting [13]) and 0.175 ± 0.021 g/cm^2 in the data set on female Wistar rats [5] (setting [14]). The “Bone density, tibia” value with female Wistar rats [5] (setting [12]) came out at 0.251 ± 0.015 g/cm^2; in the data set on female Wistar rats [5] (setting [13]) it was 0.256 ± 0.017 g/cm^2; in the data set with female Wistar rats [5] (setting [14]), 0.245 ± 0.014 g/cm^2. Besides, the “Bone density, femur” value is recorded as 0.241 ± 0.017 g/cm^2 with female Wistar rats [5] (setting [13]) and 0.240 ± 0.028 g/cm^2 in the data set on female Wistar rats [5] (setting [14]). Further, in the data set on female Wistar rats [5], the “influence on bone density of lumbar vertebrae (in words)” value is on record as “increased the bone density of lumbar vertebrae”.

On to “[Val^1,Ala^7,Gln^11,18,Cys^16,Ala^30,Des-19-22]sCT [Compound 4]”, for which the “Activity (calcium-reducing activity)” value in the data set with rats [1] is on record as 807 IU/mg.

Consider “[Val^1, Cys^7(mPEG5000-MAL),Des-19-22, Ala^30]sCT [Compound 16]”, for which the “Activity (calcium-reducing activity)” value in the data set on rats [1] was 717 IU/mg.

On to “[Val^1,Ala^7,Gln^11,18,Cys^16(mPEG5000-MAL),Des-19-22,Ala^30]sCT [Compound 15]”, for which the “Activity (calcium-reducing activity)” value with rats [1] is reported as 301 IU/mg.

In the case of “[Val^1,Cys^7(mPEG5000-MAL), Gln^11,Des-19-22, Ala^30]sCT [Compound 19]”, in the data set with rats [1], the “Activity (calcium-reducing activity)” value was determined as 815 IU/mg.
